# Measurements reported in US20240218022A1, “ANTI-VISTA MACROCYCLIC PEPTIDES AND COMPOSITIONS” (BRISTOL-MYERS SQUIBB COMPANY, priority 2022, published 2024).
# Where two headings read alike, the source gives them in different places. Starred links: 1 amine or outer side, 2 acyl side, 3 side chain; linkers in the order of their positions; H or OH if unused. Positions of bridges follow the written chain, without caps; N, C: chain ends. Non-standard residues stand in square brackets, D forms with d. Residues, ends and D or L forms follow the SMILES beside them. Phe(3-Me) = Cc1cccc(C[C@H](N)C(=O)O)c1; γGlu = O=C(O)[C@H](CCC(=O)[*:2])N[*:1]; 2Nal = N[C@@H](Cc1ccc2ccccc2c1)C(=O)O; βAsp = O=C(O)[C@H](CC(=O)[*:2])N[*:1]; Ahp(2) = CCCCC[C@H](N)C(=O)O; NMeNle = CCCC[C@H](NC)C(=O)O; Tle = CC(C)(C)[C@H](N)C(=O)O; NMeV = CN[C@H](C(=O)O)C(C)C; NHexGly = CCCCCCNCC(=O)O; Nle = CCCC[C@H](N)C(=O)O; Orn = NCCC[C@H](N)C(=O)O; Aun = NCCCCCCCCCCC(=O)O; AEEA = NCCOCCOCC(=O)O
# Molecular target: T1, mouse VISTA (mVISTA) (Mus musculus, UniProt Q9D659)
# T1 construct: expressed in transfected cells; host or cells: Human embryonic kidney 293T cells
# T1 sequence (Q9D659 33-308): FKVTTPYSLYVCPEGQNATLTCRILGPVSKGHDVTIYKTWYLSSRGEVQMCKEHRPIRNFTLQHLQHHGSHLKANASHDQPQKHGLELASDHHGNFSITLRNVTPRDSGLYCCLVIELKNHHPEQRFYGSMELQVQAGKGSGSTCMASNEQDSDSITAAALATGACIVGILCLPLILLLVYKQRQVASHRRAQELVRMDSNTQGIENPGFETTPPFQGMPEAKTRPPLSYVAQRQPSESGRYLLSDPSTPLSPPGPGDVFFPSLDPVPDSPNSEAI
# Assay: Cell-Based Binding High-Content Assay For mVISTA (HC CBA mVISTA)
# How it was run: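 293T cells expressing mouse VISTA, with compounds added either after seeding ("no wash") or before seeding and then washed out after 1 h. Biotinylated peptide 2 nM for 30 min at room temperature, then detection with Alexa 647–streptavidin. After fixation with Hoechst stain, plates were high-content imaged; IC50 from four-parameter logistic fit.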
# [1] = the 19th table, scaffold drawing 22, read-out: HC CBA mVISTA IC50
# [2] = the 20th table, scaffold drawing 23, read-out: HC CBA mVISTA IC50
compound,measurement,setting,value
CCCCCCN1CC(=O)N[C@@H](Cc2ccc(O)cc2)C(=O)N[C@@H](CCCC)C(=O)N[C@@H](CC(N)=O)C(=O)N[C@@H](CCCN)C(=O)N(C)[C@@H](CCCC)C(=O)N[C@@H](CCCCC)C(=O)N2CCC[C@H]2C(=O)N[C@@H](C(C)(C)C)C(=O)N[C@@H](CC(=O)O)C(=O)N[C@H](C(=O)N[C@@H](CC(N)=O)C(=O)O)CSCC(=O)N[C@@H](Cc2ccccc2)C(=O)N[C@@H](Cc2c[nH]c3ccccc23)C(=O)N[C@@H](CC(=O)O)C1=O [Example 1404] ({CH2CO}-FWD[NHexGly]Y[Nle]N[Orn][NMeNle][Ahp(2)]P[Tle]DCN-OH; thioether N-14),IC50,read-out: HC CBA mVISTA IC50,16 nM
CCCCCCN1CC(=O)N[C@@H](Cc2ccc(O)cc2)C(=O)N[C@@H](CCCC)C(=O)N[C@@H](CC(=O)O)C(=O)N[C@@H](CCCNC(=N)N)C(=O)N(C)[C@@H](CCCC)C(=O)N[C@@H](CCCCC)C(=O)N2CCC[C@H]2C(=O)N[C@@H](C(C)(C)C)C(=O)N[C@@H](CO)C(=O)N[C@H](C(=O)N[C@@H](CC(=O)O)C(N)=O)CSCC(=O)N[C@@H](Cc2ccccc2)C(=O)N[C@@H](Cc2c[nH]c3ccccc23)C(=O)N[C@@H](CC(=O)O)C1=O [Example 1375] ({CH2CO}-FWD[NHexGly]Y[Nle]DR[NMeNle][Ahp(2)]P[Tle]SCD-NH2; thioether N-14),IC50,read-out: HC CBA mVISTA IC50,42.5 nM
CCCCCCN1CC(=O)N[C@@H](Cc2ccc(O)cc2)C(=O)N[C@@H](CCCC)C(=O)N[C@@H](CC(=O)O)C(=O)N[C@@H](CCCN)C(=O)N[C@@H](CC(C)C)C(=O)N[C@@H](CCCCC)C(=O)N2CCC[C@H]2C(=O)N[C@@H](C(C)C)C(=O)N[C@@H](CC(=O)O)C(=O)N[C@H](C(=O)N[C@@H](CC(=O)O)C(N)=O)CSCC(=O)N[C@@H](Cc2cccc(C)c2)C(=O)N[C@@H](Cc2ccc(O)cc2)C(=O)N[C@@H](CC(=O)O)C1=O [compound 1430] ({CH2CO}-[Phe(3-Me)]YD[NHexGly]Y[Nle]D[Orn]L[Ahp(2)]PVDCD-NH2; thioether N-14),IC50,[1],6.2 nM
CCCCCCN1CC(=O)N[C@@H](Cc2ccc(O)cc2)C(=O)N[C@@H](CCCC)C(=O)N[C@@H](CC(N)=O)C(=O)N[C@@H](CCCNC(=N)N)C(=O)N[C@@H](CC(C)C)C(=O)N[C@@H](CCCCC)C(=O)N2CCC[C@H]2C(=O)N[C@@H](C(C)C)C(=O)N[C@@H](CO)C(=O)N[C@H](C(=O)NCC(=O)O)CSCC(=O)N[C@@H](Cc2ccc(O)cc2)C(=O)N[C@@H](Cc2ccc(O)cc2)C(=O)N[C@@H](CC(=O)O)C1=O [compound 1473] ({CH2CO}-YYD[NHexGly]Y[Nle]NRL[Ahp(2)]PVSCG-OH; thioether N-14),IC50,[2],3.2 nM
CCCCCCN1CC(=O)N[C@@H](Cc2ccc(O)cc2)C(=O)N[C@@H](CC(C)C)C(=O)N[C@@H](CC(N)=O)C(=O)N[C@@H](CCCNC(=N)N)C(=O)N(C)[C@@H](C(C)C)C(=O)N[C@@H](CCCCC)C(=O)N2CCC[C@H]2C(=O)N[C@@H](C(C)(C)C)C(=O)N[C@@H](CC(=O)O)C(=O)N[C@H](C(=O)N[C@@H](CC(=O)NCCOCCOCC(=O)N[C@@H](CC(=O)O)C(=O)NCCOCCOCC(=O)NCCCCCCCCCCC(=O)O)C(=O)O)CSCC(=O)N[C@@H](Cc2ccccc2)C(=O)N[C@@H](Cc2ccc(O)cc2)C(=O)N[C@@H](CC(=O)O)C1=O [compound 2037] ({CH2CO}-FYD[NHexGly]YLNR[NMeV][Ahp(2)]P[Tle]DC[βAsp][AEEA]D[AEEA][Aun]-OH; thioether N-14),IC50,"cell-based binding high-content assay, mVISTA, read-out: HC CBA miPr ISTA IC50",34.4 nM
CCCCCCN1CC(=O)N[C@@H](Cc2ccc(O)cc2)C(=O)N[C@@H](CCCC)C(=O)N[C@@H](CC(N)=O)C(=O)N[C@@H](CCCNC(=N)N)C(=O)N[C@@H](CC(C)C)C(=O)N[C@@H](CCCCC)C(=O)N2CCC[C@H]2C(=O)N[C@@H](C(C)C)C(=O)N[C@@H](CC(=O)O)C(=O)N[C@H](C(=O)NCC(=O)O)CSCC(=O)N[C@@H](Cc2cccc(C)c2)C(=O)N[C@@H](Cc2c[nH]c3ccccc23)C(=O)N[C@@H](CC(=O)O)C1=O [compound 1420] ({CH2CO}-[Phe(3-Me)]WD[NHexGly]Y[Nle]NRL[Ahp(2)]PVDCG-OH; thioether N-14),IC50,[1],2 nM
CCCCCCN1CC(=O)N[C@@H](Cc2ccc(O)cc2)C(=O)N[C@@H](CCCC)C(=O)N[C@@H](CC(N)=O)C(=O)N[C@@H](CCCNC(=N)N)C(=O)N(C)[C@@H](CCCC)C(=O)N[C@@H](CCCCC)C(=O)N2CCC[C@H]2C(=O)N[C@@H](C(C)C)C(=O)N[C@@H](CC(=O)O)C(=O)N[C@H](C(=O)NCC(=O)O)CSCC(=O)N[C@@H](Cc2ccccc2)C(=O)N[C@@H](Cc2c[nH]c3ccccc23)C(=O)N[C@@H](CC(=O)O)C1=O [Example 1379] ({CH2CO}-FWD[NHexGly]Y[Nle]NR[NMeNle][Ahp(2)]PVDCG-OH; thioether N-14),IC50,read-out: HC CBA mVISTA IC50,5.9 nM
CCCCCCN1CC(=O)N[C@@H](Cc2ccc(O)cc2)C(=O)N[C@@H](CC(C)C)C(=O)N[C@@H](CC(N)=O)C(=O)N[C@@H](CCCNC(=N)N)C(=O)N[C@@H](CC(C)C)C(=O)N[C@@H](CCCCC)C(=O)N2CCC[C@H]2C(=O)N[C@@H](C(C)C)C(=O)N[C@@H](CO)C(=O)N[C@H](C(=O)NCCOCCOCC(=O)N[C@@H](CC(=O)O)C(=O)NCCOCCOCC(=O)NCCCCCCCCCCC(=O)O)CSCC(=O)N[C@@H](Cc2ccccc2)C(=O)N[C@@H](Cc2ccc(O)cc2)C(=O)N[C@@H](CC(=O)O)C1=O [compound 2285] ({CH2CO}-FYD[NHexGly]YLNRL[Ahp(2)]PVSC[AEEA]D[AEEA][Aun]-OH; thioether N-14),IC50,"cell-based binding high-content assay, read-out: HC CBA miPrISTA IC50",15.2 nM
CCCCCCN1CC(=O)N[C@@H](Cc2ccc(O)cc2)C(=O)N[C@@H](CCCCC)C(=O)N[C@@H](CC(=O)O)C(=O)N[C@@H](CCCNC(=N)N)C(=O)N[C@@H](CC(C)C)C(=O)N[C@@H](CCCCC)C(=O)N2CCC[C@H]2C(=O)N[C@@H](C(C)C)C(=O)N[C@@H](CC(=O)O)C(=O)N[C@H](C(=O)NCC(=O)O)CSCC(=O)N[C@@H](Cc2ccccc2)C(=O)N[C@@H](Cc2ccc(O)cc2)C(=O)N[C@@H](CC(=O)O)C1=O [Example 1013] ({CH2CO}-FYD[NHexGly]Y[Ahp(2)]DRL[Ahp(2)]PVDCG-OH; thioether N-14),IC50,"293T cells expressing mouse VISTA, competition with biotinylated peptide (2 nM), read-out: HC CBA mVISTA IC50",17.1 nM
CCCCCCN1CC(=O)N[C@@H](Cc2ccc(O)cc2)C(=O)N[C@@H](CCCC)C(=O)NCC(=O)N[C@@H](CCCNC(=N)N)C(=O)N[C@@H](CC(C)C)C(=O)N[C@@H](CCCCC)C(=O)N2CCC[C@H]2C(=O)N[C@@H](C(C)C)C(=O)N[C@@H](CC(N)=O)C(=O)N[C@H](C(=O)N[C@@H](CCC(=O)NCCCCCCCCCCC(=O)O)C(=O)O)CSCC(=O)N[C@@H](Cc2ccccc2)C(=O)N[C@@H](Cc2ccc(O)cc2)C(=O)N[C@@H](CC(=O)O)C1=O [Example 2130] ({CH2CO}-FYD[NHexGly]Y[Nle]GRL[Ahp(2)]PVNC[γGlu][Aun]-OH; thioether N-14),IC50,read-out: HC CBA mVISTA IC50,37.2 nM
CCCCCCN1CC(=O)N[C@@H](Cc2ccc(O)cc2)C(=O)N[C@@H](CCCC)C(=O)N[C@@H](CC(N)=O)C(=O)N[C@@H](CCCNC(=N)N)C(=O)N[C@@H](CC(C)C)C(=O)N[C@@H](CCCCC)C(=O)N2CCC[C@H]2C(=O)N[C@@H](C(C)C)C(=O)N2CCC[C@H]2C(=O)N[C@H](C(=O)NCC(=O)O)CSCC(=O)N[C@@H](Cc2ccccc2)C(=O)N[C@@H](Cc2ccc(O)cc2)C(=O)N[C@@H](CC(=O)O)C1=O [compound 1121] ({CH2CO}-FYD[NHexGly]Y[Nle]NRL[Ahp(2)]PVPCG-OH; thioether N-14),IC50,read-out: HC CBA mVISTA IC50,32.4 nM
CCCCCCN1CC(=O)N[C@@H](Cc2ccc(O)cc2)C(=O)N[C@@H](CCCC)C(=O)N[C@@H](CC(N)=O)C(=O)N[C@@H](CCCNC(=N)N)C(=O)N[C@@H](CC(C)C)C(=O)N[C@@H](CCCCC)C(=O)N2CCC[C@H]2C(=O)N[C@@H](C(C)C)C(=O)N[C@@H](CC(=O)O)C(=O)N[C@H](C(=O)N[C@@H](CO)C(N)=O)CSCC(=O)N[C@@H](Cc2ccc3ccccc3c2)C(=O)N[C@@H](Cc2ccc(O)cc2)C(=O)N[C@@H](CC(=O)O)C1=O [Ex 1315] ({CH2CO}-[2Nal]YD[NHexGly]Y[Nle]NRL[Ahp(2)]PVDCS-NH2; thioether N-14),IC50,"cell-based binding high-content assay, mVISTA, the 16th table, read-out: HC CBA mVISTA IC50",37.1 nM
CCCCCCN1CC(=O)N[C@@H](Cc2ccc(O)cc2)C(=O)N[C@@H](CCCC)C(=O)N[C@@H](CC(N)=O)C(=O)N[C@@H](CCCNC(=N)N)C(=O)N[C@@H](CC(C)C)C(=O)N[C@@H](CCCCC)C(=O)N2CCC[C@H]2C(=O)N[C@@H](C(C)C)C(=O)N[C@@H](CO)C(=O)N[C@H](C(=O)NCC(N)=O)CSCC(=O)N[C@@H](Cc2ccc(O)cc2)C(=O)N[C@@H](Cc2ccc(O)cc2)C(=O)N[C@@H](CC(=O)O)C1=O [compound 1474] ({CH2CO}-YYD[NHexGly]Y[Nle]NRL[Ahp(2)]PVSCG-NH2; thioether N-14),IC50,[2],40.4 nM
CCCCCCN1CC(=O)N[C@@H](Cc2ccc(O)cc2)C(=O)N[C@@H](CCCC)C(=O)N[C@@H](CC(N)=O)C(=O)N[C@@H](CCCNC(=N)N)C(=O)N[C@@H](CC(C)C)C(=O)N[C@@H](CCCCC)C(=O)N2CCC[C@H]2C(=O)N[C@@H](C(C)C)C(=O)N[C@@H](CC(=O)O)C(=O)N[C@H](C(=O)NCCOCCOCC(=O)N[C@@H](CC(=O)NCCOCCOCC(=O)NCCCCCCCCCCC(=O)O)C(=O)O)CSCC(=O)N[C@@H](Cc2cccc(C)c2)C(=O)N[C@@H](Cc2c[nH]c3ccccc23)C(=O)N[C@@H](CC(=O)O)C1=O [Example 2198] ({CH2CO}-[Phe(3-Me)]WD[NHexGly]Y[Nle]NRL[Ahp(2)]PVDC[AEEA][βAsp][AEEA][Aun]-OH; thioether N-14),IC50,read-out: HC CBA mVISTA IC50,15.2 nM
